From patent publication US20230277630A1, “METHODS AND COMPOSITIONS FOR TREATING AMYOTROPHIC LATERAL SCLEROSIS” (Amylyx Pharmaceuticals, Inc., priority 2022, published 2023)
“And” between values parts separate entries of the source, which are not always exact repeats. Equal values may be shown once.

What was measured:
[1] = CYP reaction phenotyping: CYP control (negative control without CYP enzymes); conditions: 20 min, pH 7.4
Procedure: The reaction was initiated by the addition of NADPH, followed by incubation at 37° C.

[2] = target: T1, OCT2 (Homo sapiens, UniProt O15244); assay: OCT2 inhibitor (IC50) assessment, MPP+ uptake in transfected HEK cells
T1 sequence (O15244 1-555): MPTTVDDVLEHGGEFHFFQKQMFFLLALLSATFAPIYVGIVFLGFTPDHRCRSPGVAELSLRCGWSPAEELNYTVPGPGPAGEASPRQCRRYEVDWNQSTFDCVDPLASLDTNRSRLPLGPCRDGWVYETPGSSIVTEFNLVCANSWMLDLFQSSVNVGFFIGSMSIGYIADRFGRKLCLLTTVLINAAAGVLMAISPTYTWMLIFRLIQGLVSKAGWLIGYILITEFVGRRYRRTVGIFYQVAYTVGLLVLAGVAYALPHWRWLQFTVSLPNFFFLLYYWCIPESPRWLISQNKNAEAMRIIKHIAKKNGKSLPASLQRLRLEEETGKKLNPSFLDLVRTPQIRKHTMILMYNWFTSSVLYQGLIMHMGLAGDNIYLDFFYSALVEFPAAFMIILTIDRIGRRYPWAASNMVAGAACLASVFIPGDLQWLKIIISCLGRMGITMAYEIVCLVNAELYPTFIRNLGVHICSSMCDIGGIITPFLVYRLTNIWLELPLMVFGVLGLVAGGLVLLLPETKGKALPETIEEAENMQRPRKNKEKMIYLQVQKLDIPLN

[3] = system: CYP2B6 mRNA; assay: Induction of CYP2B6 mRNA in human hepatocytes (qPCR); conditions: controls: 1,000 μM phenobarbital, 10 μM flumazenil, 72 h
Procedure: Plateable and inducible cryopreserved human hepatocytes were thawed and isolated in human hepatocyte thawing medium.
All experiments were performed in triplicate.
After induction treatment, CYP mRNA expression was measured by qPCR. Total RNA was isolated from the treated cells using the RNeasy® mini kit (Qiagen, Valencia, Calif., USA) and treated with RNase-free DNase (Qiagen) following the manufacturer's protocols. The concentration of RNA was determined using a Qubit® Fluorometer with a Qubit RNA HS assay kit (Invitrogen). cDNA was synthesized from up to 1 μg of the total RNA harvested from the cells using a QuantiTect® RT kit (Qiagen). Analysis of CYP gene expression by qPCR (Table 3) was performed using the LightCycler® 480 II System (Roche Diagnostics Corporation, Indianapolis, Ind., USA).
Relative mRNA was expressed as the fold-increase calculated from the normalized mRNA level (2^−ΔΔCt) relative to vehicle control. The percentage of mRNA fold-increase relative to positive control was calculated using the following equation:
% Induction relative to positive control=100×(mRNATA−mRNAvehicle)/(mRNApositive control−mRNAvehicle)

[4] = system: human hepatocytes; assay: Cell viability after CYP induction treatment (MTS); conditions: controls: 50 μM OME, 1,000 μM phenobarbital, 50 μM RIF, 10 μM flumazenil, 72 h
Procedure: Plateable and inducible cryopreserved human hepatocytes were thawed and isolated in human hepatocyte thawing medium. […] After attachment (4 hours), the medium was changed to fresh hepatocyte culture medium for overnight cell recovery. […] A positive control (100 μM chlorpromazine) was treated in parallel. […] The absorbance of formazan, which is proportional to the number of viable cells, was measured spectrophotometrically using the CellTiter 96® AQueous One Solution Cell Proliferation Assay (MTS).
After the CYP induction treatment, the cells were used for cell viability assay. The viability of cells (expressed as the percentage of MTS absorbance relative to vehicle control) was measured as described herein.

[5] = target: T2, MATE1 (Homo sapiens, UniProt Q96FL8); assay: MATE1 inhibitor (IC50) assessment, metformin uptake in transfected HEK cells
T2 sequence (Q96FL8 1-570): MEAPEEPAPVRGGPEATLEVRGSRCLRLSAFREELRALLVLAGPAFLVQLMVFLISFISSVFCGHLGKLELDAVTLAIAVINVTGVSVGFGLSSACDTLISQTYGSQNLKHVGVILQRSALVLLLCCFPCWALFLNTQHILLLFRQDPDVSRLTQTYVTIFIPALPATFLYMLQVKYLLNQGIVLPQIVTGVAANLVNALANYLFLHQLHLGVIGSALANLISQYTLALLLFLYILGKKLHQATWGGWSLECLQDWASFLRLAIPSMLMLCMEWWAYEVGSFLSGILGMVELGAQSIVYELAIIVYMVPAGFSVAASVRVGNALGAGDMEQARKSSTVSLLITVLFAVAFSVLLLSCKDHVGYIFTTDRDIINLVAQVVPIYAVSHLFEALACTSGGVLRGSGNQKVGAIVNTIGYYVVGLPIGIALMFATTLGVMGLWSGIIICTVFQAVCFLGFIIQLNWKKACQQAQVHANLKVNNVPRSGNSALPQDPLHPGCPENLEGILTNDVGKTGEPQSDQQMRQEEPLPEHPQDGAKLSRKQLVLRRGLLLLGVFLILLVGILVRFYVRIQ

[6] = system: P-gp and BCRP; assay: P-gp and BCRP substrate assessment, bidirectional permeability in C2BBe1 cells; conditions: C2BBe1 cells, 10 μM probe; for recovery at 10 μM / Papp A→B at 10 µM / Papp B→A at 10 µM: human; for Papp A→B at 10 µM / Papp B→A at 10 µM: Caco-2, pH 7.4, probe digoxin (P-gp), cladribine (BCRP); for Papp A→B at 10 µM: AP-to-BL Papp; for Papp B→A at 10 µM: BL-to-AP Papp
Procedure: The P-gp and BCRP substrate assessment was conducted in C2BBe1 cell monolayers. […] LY was co-dosed with each dosing solution at a nominal concentration of 200 μM.
The cell culture medium was aspirated, and the cell monolayers were rinsed once with HBSSg_7.4. […] For receiver samples, aliquots (300 μL) were taken at pre-selected time points. […] For donor samples, aliquots (50 μL) were taken at pre-selected time points without replacement.

[7] = target: MATE2K (Homo sapiens, UniProt Q86VL8); assay: MATE2K inhibitor (IC50) assessment, metformin uptake in transfected HEK cells
Chain of MATE2K (Q86VL8 1-566 isoform Q86VL8-3): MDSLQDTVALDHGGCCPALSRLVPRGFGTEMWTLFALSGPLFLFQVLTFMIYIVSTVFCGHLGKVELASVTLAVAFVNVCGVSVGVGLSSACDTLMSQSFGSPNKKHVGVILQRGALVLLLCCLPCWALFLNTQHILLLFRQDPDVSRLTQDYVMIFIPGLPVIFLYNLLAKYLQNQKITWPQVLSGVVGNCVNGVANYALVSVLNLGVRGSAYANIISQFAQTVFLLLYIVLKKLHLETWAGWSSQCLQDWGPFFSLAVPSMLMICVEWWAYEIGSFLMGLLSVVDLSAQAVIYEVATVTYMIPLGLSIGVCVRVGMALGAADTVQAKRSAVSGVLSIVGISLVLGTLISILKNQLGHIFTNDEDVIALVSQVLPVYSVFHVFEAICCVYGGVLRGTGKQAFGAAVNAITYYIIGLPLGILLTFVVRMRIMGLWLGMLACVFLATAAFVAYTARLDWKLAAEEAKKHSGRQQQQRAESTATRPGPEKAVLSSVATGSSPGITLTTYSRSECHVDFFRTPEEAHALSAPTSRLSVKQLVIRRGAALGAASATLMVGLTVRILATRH

[8] = 5 μM MPP+ alone, 2 min, replicates 1, 2 and Average
[9] = batch used with Sol_1, Sol_3, and Sol_4, single replicates
[10] = batch used with Sol_2, single replicates
[11] = 50 μM Metformin alone, 10 min, HBSSg_8.5, replicates and Average
[12] = absence of TUDCA and PB or positive inhibitor
[13] = 50 μM Metformin alone, 10 min, HBSSg_8.5, replicates 1, 2 and Average

SMILES: CCN(CC)Cc1cc(Nc2ccnc3cc(Cl)ccc23)ccc1O [Amodiaquine]
- Measured Metabolite [1]: 0 µM

SMILES: C[n+]1ccc(-c2ccccc2)cc1 [MPP+, 1-methyl-4-phenylpyridinium]
- Net Influx Rate of MPP+ (OCT2) ([2]; 5 μM MPP+ alone): 847 pmol/mg protein/minute
- influx rate ratio of MPP+ (OCT2 over vector control) ([2]; 5 μM MPP+ alone, 2 min): 48.9
- Influx Rate of MPP+, OCT2-HEK Cells [2, 8]: 896 pmol/mg protein/minute and 833 pmol/mg protein/minute
- Influx Rate of MPP+, Vector Control Cells [2, 8]: 19.0 pmol/mg protein/minute and 16.3 pmol/mg protein/minute
- influx rate ratio of MPP+ (OCT2 over vector control) ([2]; absence of TUDCA and PB or imipramine): 48.9

SMILES: CCC1(c2ccccc2)C(=O)NC(=O)NC1=O [Phenobarbital, phenobarbital]
- CYP2B6 mRNA % Induction Relative to Positive Control ([3]; donor 1): 100%
- CYP2B6 mRNA Fold-increase (n = 3) Mean ([3]; donor 1): 21.8 fold
- CYP2B6 mRNA % Induction Relative to Positive Control ([3]; donor 2): 100%
- CYP2B6 mRNA Fold-increase (n = 3) Mean ([3]; donor 2): 39.6 fold
- CYP2B6 mRNA % Induction Relative to Positive Control ([3]; donor 3): 100%
- CYP2B6 mRNA Fold-increase (n = 3) Mean ([3]; donor 3): 7.36 fold
- % MTS Absorbance Relative to Vehicle Control ([4]; donor 1): 97.7%
- Formazan Absorbance (n = 6) Mean ([4]; donor 1): 0.417
- % MTS Absorbance Relative to Vehicle Control ([4]; donor 2): 98.8%
- Formazan Absorbance (n = 6) Mean ([4]; donor 2): 0.504
- % MTS Absorbance Relative to Vehicle Control ([4]; donor 3): 108%
- Formazan Absorbance (n = 6) Mean ([4]; donor 3): 0.320

SMILES: CN/C(=N/CCSCc1nc[nH]c1C)NC#N [cimetidine]
- Percentage Inhibition of MATE1 ([5]; 50 μM Metformin + 100 μM Cimetidine): 99.2%
- inhibition of metformin uptake in MATE1-transfected cells ([5]; known inhibitor): 99.2%

SMILES: C[C@H]1O[C@@H](O[C@H]2[C@@H](O)C[C@H](O[C@H]3[C@@H](O)C[C@H](O[C@H]4CC[C@@]5(C)[C@H](CC[C@@H]6[C@@H]5C[C@@H](O)[C@]5(C)[C@@H](C7=CC(=O)OC7)CC[C@]65O)C4)O[C@@H]3C)O[C@@H]2C)C[C@H](O)[C@@H]1O [digoxin]
- AP-to-BL Papp [6, 9]: 0.350 10^−6 cm/s and 0.234 10^−6 cm/s
- AP-to-BL Recovery [6, 9]: 95.3%
- BL-to-AP Papp [6, 9]: 14.6 10^−6 cm/s and 11.2 10^−6 cm/s
- BL-to-AP Recovery [6, 9]: 94.9% and 83.1%
- AP-to-BL Papp [6, 10]: 0.381 10^−6 cm/s and 0.298 10^−6 cm/s
- AP-to-BL Recovery [6, 10]: 92.4%
- BL-to-AP Papp [6, 10]: 12.1 10^−6 cm/s and 12.8 10^−6 cm/s
- BL-to-AP Recovery [6, 10]: 96.7% and 90.2%
- recovery at 10 μM ([6]; Caco-2, pH 7.4, AP-to-BL Recovery, batch used with Sol_1, Sol_3, and Sol_4, Average): 89.5%
- recovery at 10 μM ([6]; Caco-2, pH 7.4, AP-to-BL Recovery, batch used with Sol_1, Sol_3, and Sol_4, single replicates): 90.9%
- recovery at 10 μM ([6]; Caco-2, pH 7.4, AP-to-BL Recovery, batch used with Sol_2, Average): 86.3%
- recovery at 10 μM ([6]; Caco-2, pH 7.4, AP-to-BL Recovery, batch used with Sol_2, single replicates): 77.9%
- recovery at 10 μM ([6]; Caco-2, pH 7.4, BL-to-AP Recovery, batch used with Sol_1, Sol_3, and Sol_4, Average): 87.4%
- recovery at 10 μM ([6]; Caco-2, pH 7.4, BL-to-AP Recovery, batch used with Sol_1, Sol_3, and Sol_4, single replicates): 84.1%
- recovery at 10 μM ([6]; Caco-2, pH 7.4, BL-to-AP Recovery, batch used with Sol_2, Average): 92.1%
- recovery at 10 μM ([6]; Caco-2, pH 7.4, BL-to-AP Recovery, batch used with Sol_2, single replicates): 89.5%
- Papp A→B at 10 µM [6, 9]: 0.326 ×10⁻⁶ cm/s
- Papp A→B at 10 µM ([6]; batch used with Sol_2, Average): 0.334 ×10⁻⁶ cm/s
- Papp A→B at 10 µM [6, 10]: 0.323 ×10⁻⁶ cm/s
- Papp B→A at 10 µM ([6]; batch used with Sol_1, Sol_3, and Sol_4, Average): 12.6 ×10⁻⁶ cm/s
- Papp B→A at 10 µM [6, 9]: 12.1 ×10⁻⁶ cm/s
- Papp B→A at 10 µM ([6]; batch used with Sol_2, Average): 12.8 ×10⁻⁶ cm/s
- Papp B→A at 10 µM [6, 10]: 13.5 ×10⁻⁶ cm/s

SMILES: CN(C)C(=N)N=C(N)N [metformin]
- Net Influx Rate of Metformin (MATE1) ([5]; 50 μM Metformin alone): 572 pmol/mg protein/minute
- influx rate ratio of metformin (MATE1 over vector control) ([5]; 50 μM Metformin alone): 43.4
- Influx Rate of Metformin, MATE1-HEK Cells [5, 11]: 515 pmol/mg protein/minute and 656 pmol/mg protein/minute
- Influx Rate of Metformin, Vector Control Cells [5, 11]: 15.6 pmol/mg protein/minute and 11.3 pmol/mg protein/minute
- influx rate ratio of metformin (MATE1 over vector control) [5, 12]: 43.4
- Net Influx Rate of Metformin (MATE2K) ([7]; 50 μM Metformin alone): 36.1 pmol/mg protein/minute
- influx rate ratio of metformin (MATE2K over vector control) ([7]; 50 μM Metformin alone): 2.70
- Influx Rate of Metformin, MATE2K HEK Cells [7, 13]: 54.5 pmol/mg protein/minute and 60.2 pmol/mg protein/minute
- Influx Rate of Metformin, Vector Control Cells [7, 13]: 19.6 pmol/mg protein/minute and 22.8 pmol/mg protein/minute
- influx rate ratio of metformin (MATE2K over vector control) [7, 12]: 2.70
